Results taken from patent US20240307351A1, “AGENT FOR ANTI-AGING OR FOR CELLULAR REJUVENATION” (TOHOKU UNIVERSITY, priority 2022, published 2024).

Assays:
[1] = test system: NDUFS4 homozygous knockout mice (Ndufs4−/−mice); test: Electron microscopic observation of liver tissue (fatty liver) of Ndufs4−/− mice; format: in vivo; conditions: oral, 0.1 kg/day per mg of mouse weight, 24 days, vs Control 1 group (water)
Excerpt: Compound #5 was orally administered to NDUFS4 homozygous knockout mice (Ndufs4−/−mice) (4 weeks old) at a dose of 0.1 kg/day per mg of mouse weight for 24 days ([Compound #5 administration group]).
In addition, water was orally administered to NDUFS4 homozygous knockout mice (Ndufs4−/−mice) for 24 days ([DMSO group; Control 1 group]). Further, water was orally administered to wild-type mice for 24 days ([Control 2 group]).

[2] = test system: cochlear cells of the inner ear of Ndufs4 knockout mice; test: RNA-Seq, pathway and ChIP-Atlas analysis of cochlear cells of Ndufs4 knockout mice; format: in vivo, mouse; conditions: oral, 50 mg/kg/day, 2 weeks
Method: Water-suspended Compound #5 was orally administered to Ndufs4 (NADH-ubiquinone oxidoreductase subunit 4) knockout mice (6 weeks old) at a dose of 50 mg/kg/day per kg of mouse weight for 2 weeks ([MA5 addition group], n=5).
In addition, water was orally administered to Ndufs4 knockout mice (6 weeks old) for 2 weeks ([Vehicle group], n=5).
RNA sequence (RNA-Seq) analysis was performed on cochlear cells of the inner ear of Ndufs4 knockout mice of [MA5 addition group] and [Vehicle group] described above, and genes whose expression levels changed (increased or decreased) in [MA5 addition group] as compared with [Vehicle group] were identified. Based on the names of the genes, pathway analysis was performed on genes whose expression has varied in the inner ear cells of the Ndufs4 knockout mice in [MA5 addition group].
The results of the names of the genes whose expression levels increased or decreased in the Ndufs4 knockout mice of [MA5 addition group] as compared with the Ndufs4 knockout mice of [Vehicle group] in the RNA sequence (RNA-Seq) analysis were used to perform integrated analysis with ChIP-Atlas to investigate transcription factors possibly related to these genes.

[3] = test system: Mouse inner ear cells HEI-OC1; test: RNA-Seq and ChIP-Atlas analysis of HEI-OC1 cells; format: cell-based; conditions: 10 µM
Method: Mouse inner ear cells HEI-OC1 were cultured in 10% FBS-containing DMEM medium containing 10 µM of Compound #5 (dissolved in 0.1% DMSO) ([MA5 addition group], n=5).
In addition, mouse inner ear cells HEI-OC1 were cultured in 10% FBS-containing DMEM medium containing […] 0.1% DMSO ([Vehicle group], n=5).
RNA sequencing (RNA-Seq) analysis was performed on the HEI-OC1 cells in [MA5 addition group] and [Vehicle group] to identify genes whose expression levels changed (increased or decreased) in [MA5 addition group] as compared with [Vehicle group]. Using the results of these gene names, integrated analysis with ChIP-Atlas was performed to investigate transcription factors possibly related to these genes. The results of ChIP enrichment analysis (ChEA) are shown in Table 7, and the results of analysis by ENCODE and ChEA consensus TFs from ChIP-X are shown in Table 8.

[4] = test system: PPARγ Gene; test: Quantitative PCR of PPARγ Gene in brown adipocytes of Ndufs4−/− mice; format: in vivo, mouse; conditions: 10 mg/day per kg, 50 days, vs CMC administration group
Method: Compound #5 was administered to NDUFS4 homozygous knockout mice (Ndufs4−/−mice) (4 weeks old) at a dose of 10 mg/day per kg of mouse weight for 50 days ([Compound #5 administration group]).
In addition, CMC (carboxymethylcellulose) was administered to NDUFS4 homozygous knockout mice (Ndufs4−/−mice) at a dose of 10 mg/day per kg of mouse weight for 50 days ([CMC administration group; Control group]).
Brown adipocytes were collected from the mice of [Compound #5 administration group] and [CMC administration group]. Total RNA was extracted from the brown adipocytes, and cDNA was prepared therefrom and used for measurement of mRNA expression level. The measurement was performed by a quantitative PCR method. The expression level of mRNA was determined with a relative ratio to β-actin used as an internal standard. As primers and probes, the following commercially available products (manufactured by Thermo Fisher Scientific Inc., and the like) were used. • Mouse Acts (actin beta, β-actin) Mm02619580_g1, Cat #4331182 • Mouse Ucp1 (uncoupling protein 1), Mm00494069_m1, Cat #4331182 • Mouse Pparg (PPARγ, peroxisome proliferator activated receptor gamma), Mm00440945_m1, Cat #4331182p • Mouse Fabp4 (fatty acid binding protein 4), Mm00445880_m1, Cat #4331182

[5] = test system: liver cells of aged mice; test: RNA-Seq and ChIP-Atlas analysis of liver cells of aged mice; format: in vivo, mouse; conditions: oral, 50 mg/kg/day, 2 months, Table 4
Method: (§1) Water-suspended Compound #5 was orally administered to C57BL6 mice (92 weeks old) at a dose of 50 mg/kg/day per kg of mouse weight for 2 months ([MA5 addition group], n=5). After 2 months of oral administration, the mice were 101 weeks old.
(§2) In addition, water was orally administered to C57BL6 mice (92 weeks old) for 2 months ([Vehicle group], n=5). After 2 months of oral administration, the mice were 101 weeks old.
RNA sequencing (RNA-Seq) analysis was performed on the liver cells of aged mice in [MA5 addition group] and [Vehicle group] to identify genes whose expression levels changed (increased or decreased) in [MA5 addition group] as compared with the […]. Using the results of these gene names, integrated analysis with ChIP-Atlas was performed to investigate transcription factors possibly related to these genes.

[6] = test system: C57BL6 mice (92 weeks old); test: Treadmill running test of aged mice; format: in vivo, mouse; conditions: aged C57BL6 mice (92 weeks old), oral, 50 mg/kg/day, 2 months
Method: as §1, §2

[7] = test system: various SIRTs (SIRT1, SIRT2, SIRT3, SIRT5, SIRT6, and SIRT7); test: Expression levels of various SIRTs in HEI-OC1 cells by Western blotting; format: cell-based, mouse; conditions: HEI-OC1 cell line, 1, 3, 10 or 30 μM, 24 hours, compared with absence of MA5 (0.1% DMSO)
Method: HEI-OC1 cells (mouse inner ear cell line) at 1×10^6 cell/dish were seeded and cultured in a dish containing 10 mL of a culture solution (low-glucose-containing DMEM medium (glucose concentration of 1.0 g/dL) to which 10 wt. % of FBS was added). After one day, 0.1% DMSO as a solvent of the compound or Compound #5 at various concentrations (1 μM, 3 μM, 10 μM, or 30 μM) was added, and the mixture was cultured for 24 hours ([Compound #5 addition group]). After completion of culture, the cells were collected, disrupted by a typical method, and the expression levels of various SIRTs (SIRT1, SIRT2, SIRT3, SIRT5, SIRT6, and SIRT7) in the cells were analyzed by Western blotting (see FIGS. 1-1 and 1-2).

`O=C(CC(C(=O)O)c1c[nH]c2ccccc12)c1ccc(F)cc1F` (stereo not shown) [Compound #5, 4-(2,4-difluorophenyl)-2-(1H-indole-3-yl)-4-oxo-butanoic acid] was tested, and the “fat deposition in hepatocytes (fatty liver)” value [1] was “clear reduction”, the “IGF1 signaling pathway (pathway analysis)” value [2] was “enhanced” and the “transcription factors related to genes whose expression increased (ChIP-Atlas)” value ([2]; Table 5) was “SOX2 and MYC, which are reprogramming factors necessary for the production of iPS cells, and POU2F1 (OCT1)”. For the same compound, the “transcription factors related to genes whose expression increased (ChIP enrichment analysis, ChEA)” value ([3]; Table 7) was “SUZ^12 and EZH2, which are factors constituting polycomb repressive complex-2 (PRC2), which methylates histones, and SOX2”, the “transcription factors related to genes whose expression increased (ENCODE and ChEA consensus TFs from ChIP-X)” value ([3]; Table 8) was “PPARG (peroxisome proliferator-activated receptor γ), which is a longevity-related gene, MYC, which is one of the reprogramming factors necessary for the production of iPS cells, TRIM28” and the “expression of PPARγ Gene” value [4] was “significantly higher”. For the same compound, the “transcription factors related to genes whose expression increased (ChIP-Atlas)” value [5] was “FOXO1 known as longevity genes and PPARA”, the “running time on a treadmill” value [6] was “not reduced” and the “time until exhaustion (percentage of mice that continue running)” value ([6]; compared to Vehicle group) was “significantly improved”. The “expression levels of various SIRTs in the cells” value [7] was “increased”.
